Measurements as given in patent US11407721B2, “CIS-morpholinone and other compounds as MDM2 inhibitors for the treatment of cancer” (AMGEN INC., priority 2013, dated 2022).
pIC50: −log10 of the molar value. Where two headings read alike, the source gives them in different places.

Assays:
[1] = molecular target: interaction between HDM2 and p53 (GST-hMDM2 (1-188) / biotinylated-p53 (1-83)) (Homo sapiens (Human), UniProt Q00987); test: HTRF2 Assay (improved HTRF assay); assay type: binding
[2] = molecular target: T1, interaction between HDM2 and p53 (GST-hMDM2 / biotinylated-p53) (Homo sapiens (Human), UniProt Q00987); settings: read-out: HTRF3 IC50; HTRF1 conditions except 20 uL GST-hMDM2 incubated with 1.0 ul diluted compound
[3] = molecular target: interaction between HDM2 and p53 (GST-hMDM2 aa 1-188 / biotinylated-p53 aa 1-83) (Homo sapiens (Human), UniProt Q00987)
[4] = molecular target: T1, interaction between HDM2 and p53 (GST-hMDM2 / biotinylated-p53); test: biochemical
[5] = 0.2 nM GST-hMDM2 (1-188), 0.5 nM biotinylated-p53 (1-83), 100 mM KF, read-out: HTRF2 IC50

Chain of interaction between HDM2 and p53 (GST-hMDM2 aa 1-188 / biotinylated-p53 aa 1-83) (Q00987 1-188): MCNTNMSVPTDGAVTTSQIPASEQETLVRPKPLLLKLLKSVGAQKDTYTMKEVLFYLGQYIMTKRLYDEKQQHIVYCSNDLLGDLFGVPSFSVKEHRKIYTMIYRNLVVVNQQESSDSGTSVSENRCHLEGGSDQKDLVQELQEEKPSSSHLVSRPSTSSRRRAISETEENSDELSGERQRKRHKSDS
T1 sequence (Q00987 1-188): as above
Chain of interaction between HDM2 and p53 (GST-hMDM2 (1-188) / biotinylated-p53 (1-83)) (Q00987 1-188): as above

Row | Molecule | pIC50 [1, 5] | pIC50 [2] | pIC50 [3] | pIC50 [4] | pIC50 [1]
1 | CN(C)C(=O)C[C@H]1O[C@H](c2cccc(Cl)c2)[C@H](c2ccc(Cl)cc2)N(CC2CC2)C1=O | 5.12 | 5.56 | – | – | –
2 | CS(=O)(=O)OCC[C@H]1O[C@H](c2cccc(Cl)c2)[C@H](c2ccc(Cl)cc2)N(CC2CC2)C1=O | 5.32 | 5.16 | – | – | –
3 | CCC[C@H](C(=O)N1CCN(CCC(=O)O)CC1)N1C(=O)CO[C@@H](c2ccc(Cl)cc2)[C@H]1c1ccc(Cl)cc1 | 5.44 | 5.34 | – | – | –
4 | CN1C(=O)[C@@H](Cc2cccc(C(N)=O)c2)O[C@H](c2ccc(Cl)cc2)[C@@H]1c1ccc(Cl)cc1 | 5.13 | 4.91 | – | – | –
5 | CCC[C@H](c1nnn[nH]1)N1C(=O)[C@H](Cc2ccc(C#N)c(F)c2)O[C@@H](c2ccc(Cl)cc2)[C@H]1c1ccc(Cl)cc1 [Example 35, 4-(((2S,5R,6S)-4-((R)-1-(1H-Tetrazol-5-yl)butyl)-5,6-bis(4-chlorophenyl)-3-oxomorpholin-2-yl)methyl)-2-fluorobenzonitrile] | 6.33 | 6.39 | – | – | –
6 | (2R,5S,6R)-5,6-Bis(4-chlorophenyl)-4-methyl-2-(pyridin-4-ylmethyl)morpholin-3-one and (2S,5R,6S)-5,6-bis(4-chlorophenyl)-4-methyl-2-(pyridin-4-ylmethyl)morpholin-3-one [Example 41] | 5.34 | 5.25 | – | – | –

The remaining lines, values ahead:

Row | pIC50 [1, 5] | pIC50 [2] | pIC50 [3] | pIC50 [4] | pIC50 [1] | Molecule
7 | 5.44 | 5.24 | – | – | – | CN1C(=O)[C@@H](Cc2ccc(C(N)=O)cc2)O[C@H](c2ccc(Cl)cc2)[C@@H]1c1ccc(Cl)cc1
8 | – | – | 4.93 | 4.41 | – | CN1C(=O)CO[C@@H](c2ccc(Cl)cc2)[C@H]1c1ccc(Cl)cc1 (mixture of isomers) [(5R,6S)-5,6-Bis(4-chlorophenyl)-4-methylmorpholin-3-one and (5S,6R)-5,6-bis(4-chlorophenyl)-4-methylmorpholin-3-one]
9 | – | – | 5.81 | – | – | CC(C)N1C(=O)CS(=O)(=O)[C@@H](c2cccc(Cl)c2)[C@H]1c1ccc(Cl)cc1 [(5R,6S)-6-(3-chlorophenyl)-5-(4-chlorophenyl)-4-(1-methylethyl)-3-thiomorpholinone 1,1-dioxide]
10 | 4.65 | – | 5.32 | – | – | O=C1CS(=O)(=O)[C@@H](c2cccc(Cl)c2)[C@@H](c2ccc(Cl)cc2)N1CC1CC1 [(5R,6S)-6-(3-chlorophenyl)-5-(4-chlorophenyl)-4-(cyclopropylmethyl)-3-thiomorpholinone 1,1-dioxide]
11 | < 4.00 | – | – | 4.61 | – | CC(C)N1C(=O)CO[C@H](c2ccc(Br)cc2)[C@@H]1c1ccc(Br)cc1 [(5S,6R)-5,6-bis(4-bromophenyl)-4-(1-methylethyl)-3-morpholinone]
12 | – | – | – | 6.41 | 6.29 | CCC[C@H](C(=O)NCC(=O)O)N1C(=O)[C@H](Cc2ccc(C#N)c(F)c2)O[C@@H](c2ccc(Cl)cc2)[C@H]1c1ccc(Cl)cc1 [N-((2R)-2-((2S,3R,6S)-2,3-bis(4-chlorophenyl)-6-(4-cyano-3-fluorobenzyl)-5-oxo-4-morpholinyl)pentanoyl)glycine]
